Patent US11175294B2, “Protein composition and methods for analysing microbiota” (UNIVERSITY OF OTTAWA, priority 2016, dated 2021)

What was measured:
[1] = tested on: human microbiota; assay: SILAMi-based metaproteomics of microbiota cultured with or without monosaccharides; assay type: cell-based; conditions: 2.5 g/L monosaccharide vs non-treated control; for overall effect on the metaproteome: 3,158 quantified proteins
Experimental: Finally, it was tested whether the […] labelled-standard could be used to distinguish the effects of different monosaccharides on the microbiota. It will be understood that monosaccharides are used herein as an example of a compound that may have an effect on the microbiota. However, other compounds that have be introduced to a microbiota sample or to a subject of which a microbiota sample has been obtained, that may impact the microbiota, may be similarly analyzed as described herein. Overall, 18 samples cultured with or without 2.5 g/L of each monosaccharide (N-acetyl glucosamine or GlcNAc, mannose, galactose, fucose, or glucose) were analyzed, by […]-based metaproteomics which led to 3,158 quantified proteins. Two hundred and forty-six protein groups were identified as being differentially abundant as compared to the non-treated control group (Table 4): […]

[2] = tested on: Akkermansia genus species in cultured microbiome; assay: RapidAIM assay of an individual microbiome treated with berberine, species-level taxonomic quantification on MetaLab; assay type: cell-based; conditions: high concentration vs sample cultured without drug treatment
Description: Developing RapidAIM in a multi-well plate format: microbiota can be inoculated and grown in culture media. Assays, performed in any multiwall format (e.g. 6 well to 96 well plate formats, or any other type of format, for example, using tubes) and can be titrated, examining at each stage whether the yield per well provides sufficient material for downstream analyses. The analysis can be performed using a workflow for metaproteome as described in Zhang et al. “MetaPro-IQ: a universal metaproteomic approach to studying human and mouse gut microbiota”, Microbiome, 2016 Jun. 24:4(1):31, doi: 10.1186/s40168-016-0176-z. The workflow uses the close-to-complete human or mouse gut microbial gene catalog as a database and uses an iterative database search strategy. An example of a high-through put experimental workflow for the RapidAIM has been established based on a 96-well format (FIG. 9). This workflow includes, (A) 96-well based microbiome culturing, and (B) 96-well based metaproteomics analysis.
As an example, RapidAIM was used to assay an individual a microbiome treated with a high, medium or low dose of berberine compared to the sample cultured without drug treatment (FIG. 10). The taxonomic composition at the species level were quantified in each of the cultured microbiome sample on the MetaLab bioinformatics platform.

[3] = tested on: Akkermansia spp; conditions: reported in other literature; cited from earlier work

CC(=O)N[C@H]1C(O)O[C@H](CO)[C@@H](O)[C@@H]1O (some centres unmarked) [GlcNAc, N-acetyl glucosamine]
change of GlcNAc degrading proteins [1]: significant increase
change of asparagine synthase [1]: significantly increased
overall effect on the metaproteome [1]: most dramatic alterations of the metaproteome

COc1ccc2cc3[n+](cc2c1OC)CCc1cc2c(cc1-3)OCO2 [Berberine]
abundances of the species originating from the Akkermansia genus [2]: significantly increased

CN(C)C(=N)N=C(N)N [Metformin]
Akkermansia spp in the gut microbiome [3]: increased

C[C@H](O)[C@@H](O)[C@@H](O)[C@H](O)C=O [fucose]
change of cluster 206, mainly fucose utilization-related proteins [1]: increased only in the fucose-treated microbiota
change of quantified fucose utilizing proteins in the fucose utilization pathway [1]: all of the six quantified fucose utilizing proteins in the fucose utilization pathway were increased
overall effect on the metaproteome [1]: smallest effect on the metaproteome
